Source: ChEMBL document CHEMBL5214920, “Emerging impact of triazoles as anti-tubercular agent” (Eur J Med Chem, 2022)
In brackets after ≈: the same amount, converted by molar mass.

Tests used:
[1] = system: Mycobacterium tuberculosis; assay: Antitubercular activity against Mycobacterium tuberculosis H37Rv ATCC 27294 assessed as bacterial growth inhibition; type: functional
[2] = system: Mycobacterium tuberculosis; assay: Antitubercular activity against Mycobacterium tuberculosis H37Rv assessed as bacterial growth inhibition; type: functional
[3] = system: Mycobacterium tuberculosis; assay: Antitubercular activity against Mycobacterium tuberculosis H37Rv ATCC 27294 assessed as bacterial growth inhibition measured after 10 days by MABA method; type: functional; conditions: H37Rv ATCC 27294, 240 h, time 10 day
[4] = system: Mycobacterium tuberculosis; assay: Antitubercular activity against Mycobacterium tuberculosis H37Rv assessed as bacterial growth inhibition measured after 7 days by MABA method; type: functional; conditions: 168 h, time 7 day
[5] = system: Mycobacterium tuberculosis; assay: Potency index, ratio of ethambutol MIC to test compound MIC for antitubercular activity against Mycobacterium tuberculosis H37Rv assessed as bacterial growth inhibition; type: functional
[6] = system: Mycobacterium tuberculosis; assay: Antitubercular activity against Mycobacterium tuberculosis H37Rv ATCC 27294 assessed as bacterial growth inhibition measured after 5 days by MABA method; type: functional; conditions: H37Rv ATCC 27294, 120 h, time 5 day
[7] = system: Mycobacterium tuberculosis; assay: Antitubercular activity against Mycobacterium tuberculosis H37Rv assessed as bacterial growth inhibition measured after 5 days by MABA method; type: functional; conditions: 120 h, time 5 day
[8] = system: Mycobacterium tuberculosis; assay: Antitubercular activity against Mycobacterium tuberculosis H37Rv assessed as bacterial growth inhibition measured after 24 hrs by agar micro dilution method; type: functional
[9] = system: Mycobacterium tuberculosis; assay: Antitubercular activity against Mycobacterium tuberculosis H37Rv assessed as bacterial growth inhibition at 6.25 ug/ml measured after 5 to 8 days by radiometric analysis relative to control; type: functional; set-up: scale not given: the % may be the effect or the level left; conditions: dose 6.25 µg/ml; time 5-8 day
[10] = system: Mycobacterium tuberculosis; assay: Antitubercular activity against Mycobacterium tuberculosis H37Rv assessed as bacterial growth inhibition by direct susceptibility assay; type: functional
[11] = Cytotoxicity against CHO cells assessed as cell growth inhibition by MTT assay; type: toxicity, cell-based, Cricetulus griseus; conditions: chinese hamster
[12] = system: Mycobacterium tuberculosis; assay: Antitubercular activity against Mycobacterium tuberculosis H37Rv assessed as bacterial growth inhibition measured after 7 days by broth microdilution assay; type: functional; conditions: 168 h, time 7 day
[13] = system: Mycobacterium tuberculosis; assay: Antitubercular activity against Mycobacterium tuberculosis H37Rv assessed as bacterial growth inhibition by micro broth dilution assay; type: functional
[14] = system: Mycobacterium tuberculosis; assay: Antitubercular activity against Mycobacterium tuberculosis H37Rv ATCC 27294 assessed as bacterial growth inhibition by agar dilution method; type: functional
[15] = system: Mycobacterium tuberculosis; assay: Antitubercular activity against Mycobacterium tuberculosis H37Rv assessed as reduction in relative light units at 2 ug/ml incubated for 4 hrs followed by addition of D-luciferin by luciferase based luminometer analysis relative to control; type: functional; set-up: scale not given: the % may be the effect or the level left; conditions: dose 2 µg/ml
[16] = system: Mycobacterium tuberculosis; assay: Antitubercular activity against Mycobacterium tuberculosis H37Rv assessed as bacterial growth inhibition measured after 7 days by direct susceptibility assay; type: functional; conditions: 168 h, time 7 day
[17] = system: Mycobacterium tuberculosis; assay: Antitubercular activity against Mycobacterium tuberculosis mc 2 7000 assessed as bacterial growth inhibition; type: functional
[18] = system: Mycobacterium tuberculosis; assay: Antitubercular activity against dormant stage of Mycobacterium tuberculosis H37Ra ATCC 25177 assessed as bacterial growth inhibition by XTT assay; type: functional
[19] = system: Mycobacterium tuberculosis; assay: Antitubercular activity against active stage of Mycobacterium tuberculosis H37Ra ATCC 25177 assessed as bacterial growth inhibition by XTT assay; type: functional
[20] = system: Mycobacterium tuberculosis; assay: Antitubercular activity against Mycobacterium tuberculosis H37Rv ATCC 27294 assessed as bacterial growth inhibition measured after 7 days by MABA method; type: functional; conditions: H37Rv ATCC 27294, 168 h, time 7 day
[21] = system: Mycobacterium tuberculosis; assay: Antitubercular activity against Mycobacterium tuberculosis H37Rv assessed as reduction in relative light units at 5 ug/ml incubated for 4 hrs followed by addition of D-luciferin by luciferase based luminometer analysis relative to control; type: functional; set-up: scale not given: the % may be the effect or the level left; conditions: dose 5 µg/ml
[22] = system: Mycobacterium tuberculosis; assay: Antitubercular activity against Mycobacterium tuberculosis H37Rv assessed as reduction in relative light units at 25 ug/ml incubated for 4 hrs followed by addition of D-luciferin by luciferase based luminometer analysis relative to control; type: functional; set-up: scale not given: the % may be the effect or the level left; conditions: dose 25 µg/ml
[23] = system: Mycobacterium tuberculosis; assay: Antitubercular activity against Mycobacterium tuberculosis H37Rv ATCC 27294 assessed as bacterial growth inhibition measured after 48 hrs by broth dilution method; type: functional

Compound `CCCCCc1ccc(-c2cn(-c3c(C(=O)OCC)c(=O)n(C)c4ccccc34)nn2)cc1` has an MIC [1] of 3.13 µg/mL (≈ 7.04 µM).
`O=C1Nc2ccccc2/C1=N\OCc1cn(Cc2ccc(F)cc2)nn1` showed an MIC [2] of 0.78 µg/mL (≈ 2.22 µM).
Work on `CC1=CN([C@H]2C[C@H](O)[C@@H](Cn3nnc(C(=O)c4ccc(Cl)cc4)c3-c3ccc(F)cc3)O2)C(=O)CC1=O` yielded an MIC [3] of 2 µg/mL (≈ 3.81 µM).
For `O=C(N/N=C1\C(=O)N(Cc2ccc(Cl)cc2)c2ccccc21)c1ccc(-n2cc(-c3ccccc3)nn2)cc1O`, the MIC [4] was 0.39 µg/mL (≈ 0.71 µM) and the Ratio [5] was 8.
Compound `CN[C@@H]1[C@H](O[C@H]2[C@H](O[C@H]3[C@H](O)[C@@H](O)[C@H](N=C(N)N)[C@@H](O)[C@@H]3N=C(N)N)O[C@@H](C)[C@]2(O)C=O)O[C@@H](CO)[C@H](O)[C@H]1O` [STREPTOMYCIN] has an MIC [6] of 6.25 µg/mL, an MIC [7] of over 6.25 µg/mL and an MIC [3] of 2 µg/mL (≈ 3.44 µM). The MIC [8] was 3.12 µg/mL (≈ 5.37 µM).
With `COc1ccc(-c2nnc3c(C)nc4ccccc4n23)cc1` the Activity [9] was 2%.
In the case of `COc1c(N2CCN(C(=O)Cn3cc(CN4C(=O)C(=O)c5cc(C)ccc54)nn3)C(C)C2)c(F)cc2c(=O)c(C(=O)O)cn(C3CC3)c12` (centres undefined), the MIC [10] is reported as 1 µg/mL (≈ 1.52 µM) and the CC50 [11] is reported as 64 µg/mL (≈ 97.3 µM).
`O=[N+]([O-])c1ncn(CCCCNS(=O)(=O)c2cc(Cl)c(Cl)s2)n1` gave an MIC [12] of 1.56 µM (≈ 0.624 µg/mL).
With `C#Cc1nnc2c3ccccc3cnn12` the MIC [13] was 0.5 µg/mL.
`Cc1nc2ccccc2n2c(-c3ccc([N+](=O)[O-])cc3)nnc12` gave an Activity [9] of 2%.
`CC1(C)OC2C3OC(C)(C)O[C@H]3C(Cn3cc(N4C(=O)CCCC4=O)nn3)O[C@@H]2O1` (some centres undefined) showed an MIC [14] of 3.12 µg/mL (≈ 7.4 µM).
Work on `Cc1nc2ccccc2n2c(-c3ccc(Cl)cc3)nnc12` yielded an Activity [9] of 2%.
Work on `CO[C@H]1/C=C/O[C@@]2(C)Oc3c(C)c(O)c4c(O)c(c(/C=N/N5CCN(C)CC5)c(O)c4c3C2=O)NC(=O)/C(C)=C\C=C\[C@H](C)[C@H](O)[C@@H](C)[C@@H](O)[C@@H](C)[C@H](OC(C)=O)[C@@H]1C` [RIFAMPIN] yielded an MIC [4] of 0.2 µg/mL (≈ 0.243 µM), an Activity [15] of 87% and an MIC [16] of 0.043 µg/mL (≈ 0.0523 µM). It also gave an MIC [17] of 0.12 µM (≈ 0.0988 µg/mL), an MIC [18] of 0.075 µg/mL (≈ 0.0911 µM) and an MIC [19] of 0.074 µg/mL (≈ 0.0899 µM).
Compound `CC[C@@H](CO)NCCN[C@@H](CC)CO` [ETHAMBUTOL] has an MIC [6] of 7.63 µM, an MIC [7] of 1.56 µg/mL (≈ 7.64 µM) and an MIC [4] of 1.56 µg/mL (≈ 7.64 µM). The MIC [20] was 7.64 µM (≈ 1.56 µg/mL), the MIC [12] was 6.25 µM (≈ 1.28 µg/mL) and the MIC [13] was 1 µg/mL.
In the case of `CC(C)=CCC/C(C)=C/COc1ccc(/C=C/c2nnc3c4ccccc4cnn23)cc1`, the MIC [13] is reported as 0.5 µg/mL.
For `O=C1Nc2ccccc2/C1=N\OCc1cn(Cc2cccc(C(F)(F)F)c2)nn1`, the MIC [2] was 3.12 µg/mL (≈ 7.79 µM).
`NNC(=O)c1ccncc1` [ISONIAZID] gave an MIC [6] of 0.7 µM, an MIC [16] of 0.075 µg/mL (≈ 0.547 µM) and an MIC [17] of 2.92 µM (≈ 0.4 µg/mL). It also gave an MIC [3] of over 300 µg/mL, an MIC [18] of 0.043 µg/mL (≈ 0.314 µM) and an MIC [19] of 0.074 µg/mL (≈ 0.54 µM). For the same compound, the MIC [13] was 0.05 µg/mL.
Compound `CC1(C)OC2C3OC(C)(C)O[C@H]3C(Cn3cc(N4CCCC4=O)nn3)O[C@@H]2O1` (some centres undefined) has an MIC [14] of 3.12 µg/mL (≈ 7.92 µM).
Work on `CC(=O)OC[C@H]1O[C@@H](Oc2cn(Cc3ccc4ccccc4n3)nn2)[C@H](OC(C)=O)[C@@H](OC(C)=O)[C@H]1OC(C)=O` yielded an Activity [21] of 76.41% and an Activity [22] of 78.37%.
In the case of `Cc1ccc(-c2nc3ccc(C)cn3c2CC(=O)N(C)C)cc1` [ZOLPIDEM], the MIC [23] is reported as 10 µM (≈ 3.07 µg/mL) and the MIC [6] is reported as 3.12 µg/mL.
`CCOC(=O)c1c(-n2cc(-c3ccc4cc(OC)ccc4c3)nn2)c2ccccc2n(C)c1=O` gave an MIC [1] of 3.13 µg/mL (≈ 6.89 µM).
`CCc1cc(C(N)=S)ccn1` [ETHIONAMIDE] gave an MIC [17] of 90.4 µM (≈ 15 µg/mL).
Compound `Cc1nc2ccccc2n2c(-c3cccc([N+](=O)[O-])c3)nnc12` has an Activity [9] of 2%.
Work on `O=C(N/N=C/c1cc(Cl)cc(Cl)c1OCc1cn(-c2ccccc2Cl)nn1)c1ccncc1` yielded an MIC [2] of 1.56 µg/mL (≈ 3.11 µM).
Work on `Nc1ccc(-c2n[nH]c(=S)[nH]2)cc1` yielded an MIC [18] of 0.46 µg/mL (≈ 2.39 µM) and an MIC [19] of over 30 µg/mL.
